This note sets out measurements from BindingDB's records for doi:10.1021/jm025558r (Friedrich-Alexander University, 2002).

Structures are written as SMILES.

The target in assay [1] is 5-hydroxytryptamine receptor 1A (Sus scrofa). Put plainly: Displacement of [3H]- 8-OH-DPAT from porcine 5-hydroxytryptamine 1A receptor. For orientation: Loss of bound radioactivity is the signal in a displacement assay; it reports binding, not function.
Assay [2] concerns the target D(1) dopamine receptor (Sus scrofa). Put plainly: Binding affinity for porcine Dopamine receptor D1 by [3H]-SCH- 23390 displacement.

As usually defined, the Ki is a dissociation constant, usually derived from enzyme kinetics or from competition with a known ligand. Consider `O=C(NCCCCN1CCN(c2cccc(Cl)c2Cl)CC1)c1cc2ccccc2[te]1` [Benzo[b]tellurophene-2-carboxylic acid {4-[4-(2,3-dichloro-phenyl)-piperazin-1-yl]-butyl}-amide], for which the inhibitory constant (Ki) in assay [1] came to 125 nM; in assay [2], 1400 nM.
